Read-outs that look alike come from different tables or passages of the source.
Legend:
Experiment in all cases: Postemergence herbicidal activity of mixtures in cereal crops (greenhouse, visual injury)
Assay type in all cases: in vivo
[1] = test system: chickweed (Stellaria media L; STEME)
Summary of the method: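 Plants grown in greenhouse (~14 h photoperiod, ~18 °C day/17 °C night) to 2nd–3rd true leaf, then sprayed with Compound A or B (methyl ester, TEA or K salt) and a second cereal herbicide alone or combined at 187 L/ha; solvent blank controls. Visual injury (0–100%) scored after 20–22 days; Colby expected values calculated.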

[2] = test system: littleseed Canarygrass (Phalaris minor L; PHAMI); conditions: for PHAMI: Table 13
Summary of the method: (§1)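 Plants at second-third true leaf stage sprayed postemergence at 187 L/ha with compound and second cereal herbicide alone and combined; solvent blank controls. Visual injury scored 0-100% versus controls after 20-22 days; expected mixture effects by Colby's equation.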

[3] = test system: annual ryegrass (Lolium multiflorum L; LOLMG); conditions: Table 13
Summary of the method: as §1

[4] = test system: wild oats (Avena fatua L; AVEFA)
Summary of the method: as §1

[5] = test system: windgrass (Apera spica-venti L; APESV); conditions: Apera spica-venti, post-emergence, read-out: APESV Ob
Summary of the method: as §1

COc1c(Cl)ccc(-c2cc(N)c(Cl)c(C(=O)O)n2)c1F [Compound A TEA, 4-amino-3-chloro-6-(4-chloro-2-fluoro-3-methoxyphenyl)pyridine-2-carboxylic acid]
80%: pest or weed control at 8.75 g/ha ([1]; Stellaria media, post-emergence, 8.75 g/ha alone, read-out: STEME Ob) | pest or weed control at 8.75 g/ha ([1]; Stellaria media, post-emergence, 8.75 g/ha, read-out: STEME Ob)
88%: pest or weed control at 35 g/ha ([1]; Stellaria media, post-emergence, 35 g/ha alone, read-out: STEME Ob)
93%: STEME Ob ([1]; 70 g/ha alone) | pest or weed control at 70 g/ha ([1]; Stellaria media, post-emergence, 70 g/ha alone, read-out: STEME Ob)
3%: AVEFA Ob ([4]; 70 g/ha, Table 17) | pest or weed control at 35 g/ha ([5]; Table 15) | pest or weed control at 35 g/ha ([5]; Table 16) | pest or weed control at 35 g/ha ([5]; Table 17)
8%: AVEFA Ob ([4]; 140 g/ha, Table 17) | pest or weed control at 35 g/ha ([5]; Table 14) | pest or weed control at 35 g/ha ([5]; Table 18)
65%: pest or weed control at 140 g/ha ([1]; Stellaria media, post-emergence, 140 g/ha, read-out: STEME Ob)
13%: pest or weed control at 70 g/ha ([5]; Table 14) | pest or weed control at 70 g/ha ([5]; Table 18)
4%: pest or weed control at 140 g/ha ([5]; Table 15) | pest or weed control at 140 g/ha ([5]; Table 16) | pest or weed control at 140 g/ha ([5]; Table 17)
15%: pest or weed control at 140 g/ha ([5]; Table 14) | pest or weed control at 140 g/ha ([5]; Table 18)
85%: pest or weed control at 17.5 g/ha ([1]; Stellaria media, post-emergence, 17.5 g/ha alone, read-out: STEME Ob) | pest or weed control at 17.5 g/ha ([1]; Stellaria media, post-emergence, 17.5 g/ha, read-out: STEME Ob)
0%: PHAMI ([2]; 35 g/ha) | PHAMI Ob ([2]; 35 g/ha, Table 16) | PHAMI Ob ([2]; 35 g/ha, Table 18) | PHAMI ([2]; 70 g/ha) | PHAMI Ob ([2]; 70 g/ha, Table 16) | PHAMI Ob ([2]; 70 g/ha, Table 18) | PHAMI ([2]; 140 g/ha) | PHAMI Ob ([2]; 140 g/ha, Table 16) | PHAMI Ob ([2]; 140 g/ha, Table 18) | LOLMG Ob ([3]; 35 g/ha) | LOLMG Ob ([3]; 70 g/ha) | LOLMG Ob ([3]; 140 g/ha) | AVEFA Ob ([4]; 35 g/ha, Table 14) | AVEFA Ob ([4]; 35 g/ha, Table 17) | AVEFA Ob ([4]; 35 g/ha, Table 18) | AVEFA Ob ([4]; 70 g/ha, Table 14) | AVEFA Ob ([4]; 70 g/ha, Table 18) | AVEFA Ob ([4]; 140 g/ha, Table 14) | AVEFA Ob ([4]; 140 g/ha, Table 18) | pest or weed control at 70 g/ha ([5]; Table 15) | pest or weed control at 70 g/ha ([5]; Table 16) | pest or weed control at 70 g/ha ([5]; Table 17)
